ChEMBL document CHEMBL1143799, “Synthesis and primary cytotoxicity evaluation of new imidazo[2,1-b]thiazole derivatives” (2007)

Experiments:
Type in all cases: functional
SF-295 = assay: Growth inhibition of human SF295 cells after 48 hrs by SRB protein assay; conditions: SF-295, 48 h
COLO 205 = assay: Growth inhibition of human COLO205 cells after 48 hrs by SRB protein assay; conditions: COLO 205, 48 h
ACHN = assay: Growth inhibition of human ACHN cells after 48 hrs by SRB protein assay
SF-268 = assay: Growth inhibition of human SF268 cells after 48 hrs by SRB protein assay; conditions: SF-268, 48 h
RPMI-8226 = assay: Growth inhibition of human RPMI8226 cells after 48 hrs by SRB protein assay; conditions: RPMI-8226, 48 h
SK-OV-3 = assay: Growth inhibition of human SK-OV-3 cells after 48 hrs by SRB protein assay; conditions: SK-OV-3, 48 h
NCI-H460 = assay: Growth inhibition of human NCI-H460 cells after 48 hrs by SRB protein assay; conditions: NCI-H460, 48 h
DU-145 = assay: Growth inhibition of human DU145 cells after 48 hrs by SRB protein assay; conditions: DU-145, 48 h
NCI-H23 = assay: Growth inhibition of human NCI-H23 cells after 48 hrs by SRB protein assay; conditions: NCI-H23, 48 h
KM12 = assay: Growth inhibition of human KM12 cells after 48 hrs by SRB protein assay; conditions: KM12, 48 h
HCC 2998 = assay: Growth inhibition of human HCC2998 cells after 48 hrs by SRB protein assay; conditions: HCC 2998, 48 h
MCF7 = assay: Growth inhibition of human MCF7 cells after 48 hrs by SRB protein assay; conditions: MCF7, 48 h
HOP-62 = assay: Growth inhibition of human HOP62 cells after 48 hrs by SRB protein assay; conditions: HOP-62, 48 h
NCI-H522 = assay: Growth inhibition of human NCI-H522 cells after 48 hrs by SRB protein assay; conditions: NCI-H522, 48 h
CAKI-1 = assay: Growth inhibition of human CAKI1 cells after 48 hrs by SRB protein assay; conditions: CAKI-1, 48 h
MDA-MB-435 = assay: Growth inhibition of human MDA-MB-435 cells after 48 hrs by SRB protein assay; conditions: MDA-MB-435, 48 h
RXF 393 = assay: Growth inhibition of human RXF393 cells after 48 hrs by SRB protein assay; conditions: RXF 393, 48 h
NCI-H322M = assay: Growth inhibition of human NCI-H322M cells after 48 hrs by SRB protein assay
MDA-MB-231 = assay: Growth inhibition of MDA-MB-231 cells after 48 hrs by SRB protein assay; conditions: Homo sapiens, MDA-MB-231, 48 h
PC-3 = assay: Growth inhibition of human PC3 cells after 48 hrs by SRB protein assay; conditions: PC-3, 48 h
SW-620 = assay: Growth inhibition of human SW620 cells after 48 hrs by SRB protein assay; conditions: SW-620, 48 h
HOP-92 = assay: Growth inhibition of human HOP92 cells after 48 hrs by SRB protein assay; conditions: HOP-92, 48 h
OVCAR-8 = assay: Growth inhibition of human OVCAR8 cells after 48 hrs by SRB protein assay; conditions: OVCAR-8, 48 h
SNB-75 = assay: Growth inhibition of human SNB75 cells after 48 hrs by SRB protein assay; conditions: SNB-75, 48 h
SNB-19 = assay: Growth inhibition of human SNB19 cells after 48 hrs by SRB protein assay; conditions: SNB-19, 48 h
LOX IMVI = assay: Growth inhibition of human LOX IMVI cells after 48 hrs by SRB protein assay
OVCAR-3 = assay: Growth inhibition of human OVCAR-3 cells after 48 hrs by SRB protein assay; conditions: OVCAR-3, 48 h
A549 = assay: Growth inhibition of human A549 cells after 48 hrs by SRB protein assay; conditions: A549, 48 h
Hs-578T = assay: Growth inhibition of human HS578T cells after 48 hrs by SRB protein assay
SK-MEL-28 = assay: Growth inhibition of human SK-MEL-28 cells after 48 hrs by SRB protein assay; conditions: SK-MEL-28, 48 h
UACC-257 = assay: Growth inhibition of human UACC257 cells after 48 hrs by SRB protein assay; conditions: UACC-257, 48 h
EKVX = assay: Growth inhibition of human EKVX cells after 48 hrs by SRB protein assay
HCT-15 = assay: Growth inhibition of human HCT15 cells after 48 hrs by SRB protein assay; conditions: HCT-15, 48 h
UACC-62 = assay: Growth inhibition of human UACC62 cells after 48 hrs by SRB protein assay; conditions: UACC-62, 48 h
MOLT-4 = assay: Growth inhibition of human MOLT4 cells after 48 hrs by SRB protein assay; conditions: MOLT-4, 48 h
SK-MEL-5 = assay: Growth inhibition of human SK-MEL-5 cells after 48 hrs by SRB protein assay; conditions: SK-MEL-5, 48 h
SK-MEL-2 = assay: Growth inhibition of human SK-MEL-2 cells after 48 hrs by SRB protein assay; conditions: SK-MEL-2, 48 h
SF-539 = assay: Growth inhibition of human SF539 cells after 48 hrs by SRB protein assay; conditions: SF-539, 48 h
[1] = Growth inhibition of human 786O cells after 48 hrs by SRB protein assay; conditions: 786-0, 48 h

Nc1nc2[nH]cnc2c(=S)[nH]1 [THIOGUANINE]
GI50 (SF-295): 1.02 µM | TGI (SF-295; read-out: Log TGI (converted)): 158 µM | GI50 (COLO 205): 1.7 µM | TGI (COLO 205; read-out: Log TGI (converted)): 8.91 µM | GI50 (ACHN): 1.95 µM | TGI (ACHN; read-out: Log TGI (converted)): 112 µM | GI50 (SF-268): 1.15 µM | TGI (SF-268; read-out: Log TGI (converted)): 158 µM | GI50 (RPMI-8226): 0.398 µM | TGI (RPMI-8226; read-out: Log TGI (converted)): 20.9 µM | GI50 (SK-OV-3): 0.55 µM | TGI (SK-OV-3; read-out: Log TGI (converted)): 16.6 µM | GI50 (NCI-H460): 0.676 µM | TGI (NCI-H460; read-out: Log TGI (converted)): 20 µM | GI50 (DU-145): 0.794 µM | TGI (DU-145; read-out: Log TGI (converted)): 135 µM | GI50 (NCI-H23): 1.07 µM | TGI (NCI-H23; read-out: Log TGI (converted)): 22.9 µM | GI50 (KM12): 1.74 µM | TGI (KM12; read-out: Log TGI (converted)): 31.6 µM | GI50 (HCC 2998): 1 µM | TGI (HCC 2998; read-out: Log TGI (converted)): 18.2 µM | GI50 (MCF7): 0.708 µM | TGI (MCF7; read-out: Log TGI (converted)): 42.7 µM | GI50 (HOP-62): 0.741 µM | TGI (HOP-62; read-out: Log TGI (converted)): 28.8 µM | GI50 (NCI-H522): 0.912 µM | TGI (NCI-H522; read-out: Log TGI (converted)): 6.31 µM | GI50 (CAKI-1): 0.537 µM | TGI (CAKI-1; read-out: Log TGI (converted)): 15.8 µM | GI50 (MDA-MB-435): 0.851 µM | TGI (MDA-MB-435; read-out: Log TGI (converted)): 32.4 µM | GI50 (RXF 393): 0.759 µM | TGI (RXF 393; read-out: Log TGI (converted)): 7.08 µM | GI50 (NCI-H322M): 7.41 µM | TGI (NCI-H322M; read-out: Log TGI (converted)): 224 µM | GI50 (MDA-MB-231): 1.95 µM | TGI (MDA-MB-231; read-out: Log TGI (converted)): 166 µM | GI50 (PC-3): 1.78 µM | TGI (PC-3; read-out: Log TGI (converted)): 174 µM | GI50 (SW-620): 18.6 µM | TGI (SW-620; read-out: Log TGI (converted)): 63.1 µM | GI50 (HOP-92): 0.741 µM | TGI (HOP-92; read-out: Log TGI (converted)): 24 µM | GI50 (OVCAR-8): 0.692 µM | TGI (OVCAR-8; read-out: Log TGI (converted)): 60.3 µM | GI50 (SNB-75): 1.45 µM | TGI (SNB-75; read-out: Log TGI (converted)): 41.7 µM | GI50 (SNB-19): 79.4 µM | TGI (SNB-19; read-out: Log TGI (converted)): 245 µM | GI50 (LOX IMVI): 0.209 µM | TGI (LOX IMVI; read-out: Log TGI (converted)): 9.12 µM | GI50 (OVCAR-3): 0.708 µM | TGI (OVCAR-3; read-out: Log TGI (converted)): 6.76 µM | GI50 (A549): 3.55 µM | TGI (A549; read-out: Log TGI (converted)): 105 µM | GI50 (Hs-578T): 7.41 µM | TGI (Hs-578T; read-out: Log TGI (converted)): 182 µM | GI50 (SK-MEL-28): 8.91 µM | TGI (SK-MEL-28; read-out: Log TGI (converted)): 155 µM | GI50 (UACC-257): 2 µM | TGI (UACC-257; read-out: Log TGI (converted)): 97.7 µM | GI50 (EKVX): 1.91 µM | TGI (EKVX; read-out: Log TGI (converted)): 123 µM | GI50 (HCT-15): 1.1 µM | TGI (HCT-15; read-out: Log TGI (converted)): 51.3 µM | GI50 (UACC-62): 0.501 µM | TGI (UACC-62; read-out: Log TGI (converted)): 4.57 µM | GI50 (MOLT-4): 0.269 µM | TGI (MOLT-4; read-out: Log TGI (converted)): 15.5 µM | GI50 (SK-MEL-5): 3.55 µM | TGI (SK-MEL-5; read-out: Log TGI (converted)): 16.6 µM | GI50 (SK-MEL-2): 0.933 µM | TGI (SK-MEL-2; read-out: Log TGI (converted)): 10.7 µM | GI50 (SF-539): 1.02 µM | TGI (SF-539; read-out: Log TGI (converted)): 69.2 µM | GI50 [1]: 0.832 µM | TGI ([1]; read-out: Log TGI (converted)): 107 µM
